Columns and labels:
[1] = biological target: T1, Solute carrier organic anion transporter family member 1B1 (Homo sapiens, UniProt Q9Y6L6); details: chinese hamster, cho, 10 µM
T1 sequence (Q9Y6L6 whole entry): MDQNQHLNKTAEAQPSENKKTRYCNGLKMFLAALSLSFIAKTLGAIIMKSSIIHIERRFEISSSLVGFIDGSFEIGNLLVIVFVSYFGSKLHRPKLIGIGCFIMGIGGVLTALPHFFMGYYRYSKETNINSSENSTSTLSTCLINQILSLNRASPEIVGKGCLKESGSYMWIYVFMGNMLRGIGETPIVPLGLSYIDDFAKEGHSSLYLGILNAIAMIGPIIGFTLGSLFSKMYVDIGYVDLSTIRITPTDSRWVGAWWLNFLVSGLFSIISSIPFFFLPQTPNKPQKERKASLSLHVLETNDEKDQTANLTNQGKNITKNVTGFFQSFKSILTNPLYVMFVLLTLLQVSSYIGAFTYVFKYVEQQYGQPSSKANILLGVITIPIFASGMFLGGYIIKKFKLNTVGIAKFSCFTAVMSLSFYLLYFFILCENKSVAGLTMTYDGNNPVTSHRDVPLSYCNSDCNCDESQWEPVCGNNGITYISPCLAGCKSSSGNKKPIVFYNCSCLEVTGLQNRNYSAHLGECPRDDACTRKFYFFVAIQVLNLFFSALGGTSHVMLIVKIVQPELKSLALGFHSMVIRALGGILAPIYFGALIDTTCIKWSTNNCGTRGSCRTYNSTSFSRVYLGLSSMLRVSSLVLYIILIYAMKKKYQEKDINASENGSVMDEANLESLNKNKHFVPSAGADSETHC

[2] = biological target: T2, Solute carrier organic anion transporter family member 1B3 (Homo sapiens, UniProt Q9NPD5); details: chinese hamster, cho, 10 µM
T2 sequence (Q9NPD5 whole entry): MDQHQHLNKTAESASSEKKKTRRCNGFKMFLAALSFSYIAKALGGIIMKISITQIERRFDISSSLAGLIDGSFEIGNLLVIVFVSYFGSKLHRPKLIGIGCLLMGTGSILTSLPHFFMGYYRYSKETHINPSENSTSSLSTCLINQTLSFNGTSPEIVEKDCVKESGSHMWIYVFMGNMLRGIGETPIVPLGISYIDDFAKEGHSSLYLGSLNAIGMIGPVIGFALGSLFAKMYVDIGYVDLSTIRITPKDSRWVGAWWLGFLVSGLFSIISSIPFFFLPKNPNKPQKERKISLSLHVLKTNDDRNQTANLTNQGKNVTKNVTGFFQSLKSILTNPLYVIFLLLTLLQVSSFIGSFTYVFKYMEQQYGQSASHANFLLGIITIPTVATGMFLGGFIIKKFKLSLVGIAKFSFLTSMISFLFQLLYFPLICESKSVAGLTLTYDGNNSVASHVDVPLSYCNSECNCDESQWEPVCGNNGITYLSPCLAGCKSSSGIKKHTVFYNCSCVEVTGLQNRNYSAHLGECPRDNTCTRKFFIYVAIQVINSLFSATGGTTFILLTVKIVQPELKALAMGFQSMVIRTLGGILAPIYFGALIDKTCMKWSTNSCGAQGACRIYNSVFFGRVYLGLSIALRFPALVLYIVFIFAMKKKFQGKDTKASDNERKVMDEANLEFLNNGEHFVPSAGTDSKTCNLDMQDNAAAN

## COc1ccc(-c2cc(C(F)F)nn2-c2ccc(S(N)(=O)=O)cc2)cc1F [DERACOXIB]
[1]
  residual activity: 127.8%
[2]
  residual activity: 98.95%

## CC(C)=CCc1c(O)cc2occ(-c3ccc4c(c3)OCO4)c(=O)c2c1O [DERRUBONE]
[1]
  residual activity: 115.1%
[2]
  residual activity: 106.9%

## COc1cc(OC)c2c(OC)c(-c3ccc4c(c3)OCO4)c(=O)oc2c1 [DERRUSNIN]
[1]
  residual activity: 141.7%
[2]
  residual activity: 115.7%

## COc1cc(OC)c2c(=O)c(-c3ccc4c(c3)OCO4)coc2c1 [DERRUSTONE]
[1]
  residual activity: 132.5%
[2]
  residual activity: 94.69%

## CC1=CC(=O)C2=C(C)CC[C@@H]3[C@H](OC(=O)[C@H]3C)[C@@H]12 [DESACETOXYMATRICARIN]
[1]
  residual activity: 129%
[2]
  residual activity: 118.5%

## CNCCCN1c2ccccc2CCc2ccccc21.Cl [DESIPRAMINE HYDROCHLORIDE]
[1]
  residual activity: 55.55%
[2]
  residual activity: 96.51%

## Cl.c1ccc2c(c1)CN1CCCC1=N2 [DESOXYPEGANINE HYDROCHLORIDE]
[1]
  residual activity: 132%
[2]
  residual activity: 113.9%

## CC(=O)OCC(=O)[C@@]1(O)[C@H](C)C[C@H]2[C@@H]3CCC4=CC(=O)C=C[C@]4(C)[C@@]3(F)[C@@H](O)C[C@@]21C [DEXAMETHASONE ACETATE]
[1]
  residual activity: 106%
[2]
  residual activity: 88.69%

## CN(C)CC[C@@H](c1ccc(Cl)cc1)c1ccccn1.O=C(O)/C=C\C(=O)O [DEXCHLORPHENIRAMINE MALEATE]
[1]
  residual activity: 117.7%
[2]
  residual activity: 103.6%

## CC(C)NC[C@@H](O)COc1cccc2ccccc12.Cl [DEXPROPRANOLOL HYDROCHLORIDE]
[1]
  residual activity: 108.7%
[2]
  residual activity: 103.2%

## Br.COc1ccc2c(c1)[C@]13CCCC[C@@H]1[C@H](C2)N(C)CC3.O [DEXTROMETHORPHAN HYDROBROMIDE]
[1]
  residual activity: 49.83%
[2]
  residual activity: 78.21%

## CC(=O)Oc1cccc2c1C(=O)c1c(OC(C)=O)cc(C(=O)O)cc1C2=O [DIACEREIN]
[1]
  residual activity: 72.58%
[2]
  residual activity: 86.69%

## C=CCSCC=C [DIALLYL SULFIDE]
[1]
  residual activity: 82.5%
[2]
  residual activity: 95.82%

## CC1=NS(=O)(=O)c2cc(Cl)ccc2N1 [DIAZOXIDE]
[1]
  residual activity: 91.81%
[2]
  residual activity: 91.61%

## NC[C@@H]1CC[C@@H](N)[C@@H](O[C@H]2[C@H](O)[C@@H](O[C@H]3O[C@H](CO)[C@@H](O)[C@H](N)[C@H]3O)[C@H](N)C[C@@H]2N)O1 [DIBEKACIN]
[1]
  residual activity: 88.15%
[2]
  residual activity: 96.4%

## c1ccc2c(c1)sc1ccccc12 [DIBENZOTHIOPHENE]
[1]
  residual activity: 114.7%
[2]
  residual activity: 93.83%

## O=C(CC(=O)c1ccccc1)c1ccccc1 [DIBENZOYLMETHANE]
[1]
  residual activity: 129.7%
[2]
  residual activity: 118.4%

## CCCCOc1cc(C(=O)NCCN(CC)CC)c2ccccc2n1.Cl [DIBUCAINE HYDROCHLORIDE]
[1]
  residual activity: 103.4%
[2]
  residual activity: 94.35%

## CCCCOC(=O)c1ccccc1C(=O)OCCCC [DIBUTYL PHTHALATE]
[1]
  residual activity: 119.5%
[2]
  residual activity: 124.6%

## N#Cc1c(Cl)cccc1Cl [DICHLOBENIL]
[1]
  residual activity: 87.7%
[2]
  residual activity: 97.91%

## ClC(Cl)=C(c1ccc(Cl)cc1)c1ccc(Cl)cc1 [DICHLORODIPHENYLDICHLOROETHYLENE]
[1]
  residual activity: 94.96%
[2]
  residual activity: 103.2%

## O=C([O-])Cc1ccccc1Nc1c(Cl)cccc1Cl.[Na+] [DICLOFENAC SODIUM]
[1]
  residual activity: 110.6%
[2]
  residual activity: 71.01%

## COc1c2ccccc2nc2occc12 [DICTAMNINE]
[1]
  residual activity: 151.5%
[2]
  residual activity: 118.6%

## O=c1oc2ccccc2c(O)c1Cc1c(O)c2ccccc2oc1=O [DICUMAROL]
[1]
  residual activity: 33.08%
[2]
  residual activity: 19.32%

## CCN(CC)CCOC(=O)C1(C2CCCCC2)CCCCC1.Cl [DICYCLOMINE HYDROCHLORIDE]
[1]
  residual activity: 106.9%
[2]
  residual activity: 105.3%

## C/C=C(/C(=C/C)c1ccc(O)cc1)c1ccc(O)cc1 [DIENESTROL]
[1]
  residual activity: 48.7%
[2]
  residual activity: 61.94%

## CCN(CC)C(=O)N1CCN(C)CC1.O=C(O)CC(O)(CC(=O)O)C(=O)O [DIETHYLCARBAMAZINE CITRATE]
[1]
  residual activity: 95.54%
[2]
  residual activity: 81.28%

## CCN(CC)C(=O)c1cccc(C)c1 [DIETHYLTOLUAMIDE]
[1]
  residual activity: 108.7%
[2]
  residual activity: 107.2%

## O=C(O)c1cc(-c2ccc(F)cc2F)ccc1O [DIFLUNISAL]
[1]
  residual activity: 201%
[2]
  residual activity: 87.47%

## COc1cc(OC)c(-c2c(OC)cc(OC)cc2OC)c(OC)c1 [DIFUCOL HEXAMETHYL ETHER]
[1]
  residual activity: 117.5%
[2]
  residual activity: 105.6%

## C[C@@H]1CC[C@@]2(OC1)O[C@H]1[C@@H](O)[C@H]3[C@@H]4CC[C@H]5C[C@@H](O[C@@H]6O[C@H](CO)[C@H](O[C@@H]7O[C@H](CO)C(O)[C@H](O[C@@H]8OC[C@@H](O)[C@H](O)[C@H]8O)[C@H]7O[C@@H]7O[C@H](CO)[C@H](O)[C@H](O[C@@H]8O[C@H](CO)[C@@H](O)[C@H](O)[C@H]8O)[C@H]7O)[C@H](O)[C@H]6O)[C@H](O)C[C@]5(C)[C@H]4CC[C@]3(C)[C@H]1[C@@H]2C (stereo partly drawn) [DIGITONIN]
[1]
  residual activity: 76.09%
[2]
  residual activity: 98.34%

## C[C@H]1O[C@@H](O[C@H]2[C@@H](O)C[C@H](O[C@H]3[C@@H](O)C[C@H](O[C@H]4CC[C@@]5(C)[C@H](CC[C@@H]6[C@@H]5CC[C@]5(C)[C@@H](C7=CC(=O)OC7)CC[C@]65O)C4)O[C@@H]3C)O[C@@H]2C)C[C@H](O)[C@@H]1O [DIGITOXIN]
[1]
  residual activity: 56.48%
[2]
  residual activity: 66.85%

## CC(C)C1COc2cc3oc(=O)ccc3cc2O1 (stereo not drawn) [DIHYDRO-OBLIQUIN]
[1]
  residual activity: 74.37%
[2]
  residual activity: 74.86%

## COc1c(C(=O)O)ccc2c1CCC(C)(C)O2 [DIHYDRO-beta-TUBAIC ACID]
[1]
  residual activity: 98.02%
[2]
  residual activity: 102.8%

## C=C1CCC(=O)C(C)CCC2C1CC2(C)C (stereo not drawn) [DIHYDROCARYOPHYLLEN-5-ONE]
[1]
  residual activity: 24.21%
[2]
  residual activity: 39.09%

## Cc1c(O)c(O)cc2c1CC=C1[C@@]2(C)CC[C@@]2(C)[C@@H]3C[C@](C)(C(=O)O)CC[C@]3(C)CC[C@]12C [DIHYDROCELASTROL]
[1]
  residual activity: 70.52%
[2]
  residual activity: 40.35%

## CN1C[C@H](C(=O)N[C@]2(C)O[C@@]3(O)[C@@H]4CCCN4C(=O)[C@H](Cc4ccccc4)N3C2=O)C[C@@H]2c3cccc4[nH]cc(c34)C[C@H]21.CS(=O)(=O)O [DIHYDROERGOTAMINE MESYLATE]
[1]
  residual activity: 27.06%
[2]
  residual activity: 10.07%

## COC(=O)C[C@H]1C(C)(C)[C@@H](OC(C)=O)[C@@H]2CC3C4CC(=O)O[C@@H](c5ccoc5)[C@]4(C)CCC3[C@@]1(C)C2=O (stereo partly drawn) [DIHYDROFISSINOLIDE]
[1]
  residual activity: 71.88%
[2]
  residual activity: 77.17%

## CC(=O)O[C@@H]1C[C@H]2C(C)(C)C(=O)CC[C@]2(C)[C@H]2CC[C@@]3(C)[C@H](c4ccoc4)OC(=O)[C@H]4O[C@]43[C@@]21C [DIHYDROGEDUNIN]
[1]
  residual activity: 35.54%
[2]
  residual activity: 62.45%

## CCCCCC1C(=O)CCC1CC(=O)OC (stereo not drawn) [DIHYDROJASMONIC ACID, METHYL ESTER]
[1]
  residual activity: 109.5%
[2]
  residual activity: 82.72%

## CCCCCC1C(=O)CCC1CC(=O)O (stereo not drawn) [DIHYDROJASMONIC ACID]
[1]
  residual activity: 113.7%
[2]
  residual activity: 102.5%

## COc1c(CC(=O)c2cc3c(cc2O)OC(C)(C)C(O)C3)ccc2c1C=CC(C)(C)O2 (stereo not drawn) [DIHYDROMUNDULETONE]
[1]
  residual activity: 30.26%
[2]
  residual activity: 58.7%

## Cc1cc(=O)c2c(O)c3c(cc2o1)OCC(C)CC3 (stereo not drawn) [DIHYDROPTAEROXYLIN]
[1]
  residual activity: 94.2%
[2]
  residual activity: 85.01%

## COc1ccc(-c2c(O)c3c(OC)c4c(cc3oc2=O)OC(C)(C)CC4)cc1 [DIHYDROROBUSTIC ACID]
[1]
  residual activity: 73.61%
[2]
  residual activity: 70.94%

From ChEMBL document CHEMBL3039007, “Structure-based identification of OATP1B1/3 inhibitors” (Mol Pharmacol, 2013)
